Experimental data from patent US6355648B1, “Thio-oxindole derivatives” (American Home Products Corporation, priority 1999, dated 2002).
Several values for one entry are separate records, joined by “and”; a condition that tells them apart may be missing. Identical values can stand only once.

Key:
[1] = test system: rat uterine decidualization; assay: Rat decidualization assay; assay type: in vivo; conditions: for EC50: half-maximal increase in decidual response (uterine wet weight), ovariectomized rats, s.c., individual studies
Protocol: 1. Rat Decidualization Assay:
The animals are treated once daily for seven days.
Uteri are removed and trimmed of fat. Decidualized (D-hom) and control (C-horn) uterine horns are weighed separately.
Body weight: Mean total animal body weight (default-kg)
Decidual response: [(D-C)/C]×100%

[2] = molecular target: T1, A-form of the human progesterone receptor (Homo sapiens, UniProt P06401); assay: hPR binding assay (competitive radioligand binding)
T1 sequence (P06401 1-769 isoform P06401-2): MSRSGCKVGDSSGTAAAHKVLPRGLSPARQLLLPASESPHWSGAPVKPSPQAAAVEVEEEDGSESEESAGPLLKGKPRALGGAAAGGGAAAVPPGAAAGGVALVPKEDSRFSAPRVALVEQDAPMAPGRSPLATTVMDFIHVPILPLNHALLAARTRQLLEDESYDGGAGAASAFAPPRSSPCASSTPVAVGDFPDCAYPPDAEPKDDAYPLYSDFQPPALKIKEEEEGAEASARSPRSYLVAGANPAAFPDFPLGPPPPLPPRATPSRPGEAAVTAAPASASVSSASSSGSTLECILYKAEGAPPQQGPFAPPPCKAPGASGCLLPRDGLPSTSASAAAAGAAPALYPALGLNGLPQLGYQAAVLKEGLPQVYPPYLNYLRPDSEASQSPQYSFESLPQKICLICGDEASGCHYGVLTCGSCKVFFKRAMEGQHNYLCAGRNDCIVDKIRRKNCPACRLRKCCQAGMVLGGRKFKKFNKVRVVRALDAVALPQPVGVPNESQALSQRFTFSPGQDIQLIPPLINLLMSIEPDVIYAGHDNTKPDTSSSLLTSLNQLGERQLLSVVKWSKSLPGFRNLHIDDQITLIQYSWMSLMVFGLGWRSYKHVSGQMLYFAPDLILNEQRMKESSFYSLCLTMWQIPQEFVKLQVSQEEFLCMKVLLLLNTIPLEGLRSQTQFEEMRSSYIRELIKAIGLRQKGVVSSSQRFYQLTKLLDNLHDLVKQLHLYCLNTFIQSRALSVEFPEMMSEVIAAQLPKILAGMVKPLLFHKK

[3] = molecular target: T2, human PR (Homo sapiens, UniProt P06401); assay: PRE-luciferase assay in CV-1 cells; assay type: cell-based; conditions: PRE-luciferase agonist mode in CV-1 cells
T2 construct: expressed in transfected cells; host or cells: CV-1 cells, electroporated with pLEM-hPR-B plasmid
T2 sequence (P06401 1-933): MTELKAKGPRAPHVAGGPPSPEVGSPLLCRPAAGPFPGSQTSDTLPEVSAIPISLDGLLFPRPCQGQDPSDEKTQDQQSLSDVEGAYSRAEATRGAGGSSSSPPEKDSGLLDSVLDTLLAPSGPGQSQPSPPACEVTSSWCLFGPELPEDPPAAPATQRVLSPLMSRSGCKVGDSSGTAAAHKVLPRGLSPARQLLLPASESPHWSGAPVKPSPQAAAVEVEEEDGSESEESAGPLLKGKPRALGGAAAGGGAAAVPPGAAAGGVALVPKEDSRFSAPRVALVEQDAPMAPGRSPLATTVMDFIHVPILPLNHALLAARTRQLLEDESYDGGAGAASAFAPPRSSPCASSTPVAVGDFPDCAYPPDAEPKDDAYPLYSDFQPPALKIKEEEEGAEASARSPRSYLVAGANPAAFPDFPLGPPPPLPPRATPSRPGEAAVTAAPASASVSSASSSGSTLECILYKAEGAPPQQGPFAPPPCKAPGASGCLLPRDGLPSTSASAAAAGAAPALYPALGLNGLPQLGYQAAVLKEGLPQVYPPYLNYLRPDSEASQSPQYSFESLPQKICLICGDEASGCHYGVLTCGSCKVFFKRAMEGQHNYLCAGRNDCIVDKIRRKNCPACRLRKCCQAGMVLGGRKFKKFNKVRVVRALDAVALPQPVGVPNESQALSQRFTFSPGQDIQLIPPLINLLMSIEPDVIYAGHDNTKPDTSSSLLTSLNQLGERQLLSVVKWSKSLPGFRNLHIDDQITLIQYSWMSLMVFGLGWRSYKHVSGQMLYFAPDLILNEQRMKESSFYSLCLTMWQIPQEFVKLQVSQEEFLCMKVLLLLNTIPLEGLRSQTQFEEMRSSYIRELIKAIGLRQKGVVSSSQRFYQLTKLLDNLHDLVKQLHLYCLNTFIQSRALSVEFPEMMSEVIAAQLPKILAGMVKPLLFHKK
Protocol: 2. PRE-luciferase Assay in CV-1 Cells
The object of this assay is to determine a compound's progestational or antiprogestational potency based on its effect on PRE-luciferase reporter activity in CV-1 cells co-transfected with human PR and PRE-luciferase plasmids. The materials methods used in the assay are as follows.
a. Growth Medium: DMEM (BioWhittaker) containing 10% (v/v) fetal bovine serum (heat inactivated), 0.1 mM MEM non-essential amino acids, 100 U/ml penicillin, […] streptomycin, and 2 mM GlutaMax (GIBCO, BRL). Experimental medium: DMEM (BioWhittaker), phenol red-free, containing 10% (v/v) charcoal-stripped fetal bovine serum (heat-inactivated), 0.1 mM MEM non-essential amino acids, 100 U/ml penicillin, […] streptomycin, and 2 mM GlutaMax (GIBCO, BRL).
b. Cell Culture, Transfection, Treatment, and Luciferase Assay
Stock CV-1 cells are maintained in growth medium. Co-transfection is done using 1.2×10^7 cells, […] pLEM plasmid with hpR-B inserted at Sph1 and BamH1 sites, […] pGL3 plasmid with two PREs upstream of the luciferase sequence, and […] sonicated calf thymus DNA as carrier DNA in […]. Electroporation is carried out at 260 V and […] in a Biorad Gene Pulser II. After electroporation, cells are resuspended in growth medium and plated in 96-well plate at 40,000 cells/well in 200 μl. Following overnight incubation, the medium is changed to experimental medium. Cells are then treated with reference or test compounds in experimental medium. […] Twenty-four hr. after treatment, the medium is discarded, cells are washed three times with D-PBS (GIBCO, BRL). Fifty μl of cell lysis buffer (Promega, Madison, Wis.) is added to each well and the plates are shaken for 15 min in a Titer Plate Shaker (Lab Line Instrument, Inc.). Luciferase activity is measured using luciferase reagents from Promega.
Each treatment consists of at least 4 replicates. Log transformed data are used for analysis of variance and nonlinear dose response curve fitting for both agonist and antagonist modes. Huber weighting is used to downweight the effects of outliers. EC50 or IC50 values are calculated from the retransformed values.

[4] = test system: ovulation; assay: Rat ovulation inhibition model; assay type: in vivo
[5] = test system: T47D cells; assay: T47D cell proliferation assay (BrdU incorporation); assay type: cell-based; conditions: half-maximal increase in BrdU incorporation in T47D cells; individual studies
Protocol: 3. T47D Cell Proliferation Assay
The objective of this assay is the determination of progestational and antiprogestational potency by using a cell proliferation assay in T47D cells. A compound's effect on DNA synthesis in T47D cells is measured.
DMEM:F12 (1:1) (GIBCO, BRL) supplemented with 10% (v/v) fetal bovine serum (not heat-inactivated), 100 U/ml penicillin, […], and 2 mM GlutaMax (GIBCO, BRL).
Minimum Essential Medium (MEM) (#51200-038GIBCO, BRL) phenol red-free supplemented with 0.5% charcoal stripped fetal bovine serum, 100 U/ml penicillin, 200 mg/ml streptomycin, and 2 mM GlutaMax (GIBCO, BRL).
Stock T47 D cells are maintained in growth medium For BrdU incorporation assay, cells are plated in 96-well plates (Falcon, Becton Dickinson Labware) at 10,000 cells/well in growth medium. […]
At the end of BrdU labeling, the medium is removed and BrdU incorporation is measured using a cell proliferation ELISA kit (#RPN 250, Amersham Life Science) according to manufacturer's instructions. […] Then 25 μl of 1 M sulfuric acid is added to each well to stop color reaction and optical density is read in a plate reader at 450 nm within 5 min.
Square root-transformed data are used for analysis of variance and nonlinear dose response curve fitting for both agonist and antagonist modes. […] EC50 or IC50 values are calculated from the retransformed values. […]

SMILES | EC50 [3] | melting point | EC50 [1] | further results
C#C[C@]1(O)CC[C@H]2[C@@H]3CCC4=CC(=O)CC[C@@H]4[C@H]3C(=C)C[C@@]21CC [3-Ketodesogestrel] | – | – | 0.10 mg/kg, s.c. and 0.06 mg/kg, s.c. and 0.11 mg/kg, s.c. | –
N#Cc1cc(F)cc(-c2ccc3c(c2)C2(CCCCC2)C(=S)N3)c1 [Example 4, 3-(1,2-Dihydro-2-thioxospiro[cyclohexane-1,3-[3H]indol]-5-yl)-5-fluorobenzonitrile] | 0.1 nM | 236 to 250 °C | – | Ki [2]: 0.06 nM; Ovulation inhibition IC100 [4]: 0.1 mg/kg
Cc1cc(C(N)=S)sc1-c1ccc2c(c1)C1(CCCCC1)C(=S)N2 [Example 5, 4-Methyl-5-(1,2-dihydro-2-thioxospiro[cyclohexane-1,3-[3H]-indol]-5-yl)-2-thiophene Thioamide] | 0.3 nM | 244 to 249 °C | – | –
CC1(C)C(=S)Nc2ccc(-c3cccc(Cl)c3)cc21 [Example 16, 5-(3-Chlorophenyl)-3,3-dimethyl-1,3-dihydro-2H-indole-2-thione] | – | 158 to 160 °C | – | –
C#C[C@]1(O)CC[C@H]2[C@@H]3CCC4=CC(=O)CC[C@@H]4[C@H]3CC[C@@]21CC [Levonorgestrel] | – | – | 0.08 mg/kg, s.c. and 0.12 mg/kg, s.c. and 0.09 mg/kg, s.c. | –
CC(=O)O[C@]1(C(C)=O)CC[C@H]2[C@@H]3C[C@H](C)C4=CC(=O)CC[C@]4(C)[C@H]3CC[C@@]21C [MPA, medroxyprogesterone acetate] | – | – | 0.42 mg/kg, s.c. and 0.39 mg/kg, s.c. | EC50 [5]: 0.017 nM and 0.019 nM
CC(=O)[C@H]1CC[C@H]2[C@@H]3CCC4=CC(=O)CC[C@]4(C)[C@H]3CC[C@]12C [Progesterone] | – | – | 5.50 mg/kg, s.c. and 6.21 mg/kg, s.c. | –
CC#C[C@]1(O)CC[C@H]2[C@@H]3CCC4=CC(=O)CCC4=C3[C@@H](c3ccc(N(C)C)cc3)C[C@@]21C [RU486] | – | – | – | IC50 ([1]; half-maximal decrease in EC50 progesterone induced decidual response, rats, p.o.): 0.21 mg/kg, p.o. and 0.14 mg/kg, p.o.
C[C@H](O)C(=O)[C@@]1(C)CC[C@H]2[C@@H]3CCC4=CC(=O)CCC4=C3CC[C@@]21C [Trimegestone] | – | – | – | EC50 [5]: 0.017 nM and 0.014 nM and 0.019 nM

Further lines, with some results ahead:

EC50 [3] | melting point | SMILES | EC50 [1] | further results
0.8 nM | 223 to 227 °C | S=C1Nc2ccc(-c3cccc(Cl)c3)cc2C12CCCCC2 [Example 1, 5′-(3-Chlorophenyl)spiro[cyclohexane-1,3′-[3H]indole]-2′(1′H)-thione] | – | Ki [2]: 0.2 nM
0.2 nM | 230 to 232 °C | N#Cc1cc(-c2ccc3c(c2)C2(CCCCC2)C(=S)N3)cs1 [Example 3, 4-(1′, 2′-Dihydro-2′-thioxospiro[cyclohexane-1,3′-[3H]indol]-5′-yl)-2-thiophenecarbonitrile] | – | Ki [2]: 0.1 nM
– | 168 to 170 °C | CC1(Cc2ccccc2)C(=S)Nc2ccc(-c3cccc(Cl)c3)cc21 (stereo not shown) [Example 17, 3-Benzyl-5-(3-chlorophenyl)-3-methyl-1,3-dihydro-2H-indole-2-thione] | – | –
– | 149 to 150 °C | COc1cccc(-c2ccc3c(c2)C(C)(C)C(=S)N3)c1 [Example 19, 5-(3-Methoxyphenyl)-3,3-dimethyl-1,3-dihydro-2H-indole2-thione] | – | –
